Usually EC50 stands for the midpoint of the concentration-response curve. A lower EC50 goes with an effect from little substance.

The test system of the test is NaCT-CHO (CHO cells stably expressing human NaCT). In words: Assay of the citric acid cycle activation ([1,5-14C]-citric acid, diffusion of [14C]-CO2). The format is cell-based. The settings on record: 1 hour incubation at 37° C. with [1,5-14C]-citric acid. From the text: Assay of the Citric Acid Cycle Activation
(1) Construction of the Human NaCT Expression Vector pME-NaCT
The human NaCT (also called SLC13A5 or NAC2; GenBank accession No. NM_177550) cDNA was inserted into the EcoRI-NotI site of the mammalian expression vector pME18S (GenBank accession No. AB009864) and purified by Qiagen Plasmid Maxi Kit (Qiagen).
(2) Establishment of NaCT Stably Expressed CHO Cells
The pME-NaCT vector and the pcDNA™3.1 vector containing the neomycin resistance gene (Life Technologies) were co-transfected into CHO-K1 cells (ATCC) by Lipofectaimine 2000 reagent (Life Technologies). The next day the cells were subcultured in Nutrient Mixture F-12 Ham (Sigma-Aldrich) with 10% FBS (Biological Industries), and Geneticin (Life Technologies) was added (final concentration 350 μg/mL) in the following day. CHO cell clones stably expressing NaCT were given by neomycin resistant cell screening and limiting dilution method. Established cell lines (named NaCT-CHO) were also maintained in culture medium (Nutrient Mixture F-12 Ham) with 10% FBS and 350 μg/mL Geneticin. For control cells (named pME-CHO) preparation, the naive pME18S were also transfected instead of pME-NaCT into CHO-K1 cells.
(3) Assay of the Citric Acid Cycle Activation
NaCT-CHO and pME-CHO were plated at 20,000 cells/well into white CulturPlate™-96 (PerkinElmer) two days before the assay. Prior to assay incubation, the cultured plates were washed twice with washing buffer, 10 mM HEPES-Tris(pH7.4) containing 140 mM choline chloride, 2 mM KCl, 1 mM CaCl2, 1 mM MgCl2. The compounds to be tested were dissolved and diluted in DMSO (Wako Pure Chemical industries) to 1,000 times of a final concentration, and further diluted to two times as high as the final concentration in assay buffer, 10 mM HEPES-Tris(pH7.4) containing 140 mM NaCl, 2 mM KCl, 1 mM CaCl2, 1 mM MgCl2. The range of final concentrations was properly determined based on the test compounds activity. Each 25 μL compound solution was added to well and subsequently 25 μL radio-labeled substrate solution containing 0.4 mM (0.4 MBq/mL) [1,5-^14C]-citric acid (PerkinElmer) in the assay buffer was added. After 1 hour incubation at 37° C., the reaction mixture was discarded and washed three times with pre-chilled washing buffer and then 0.1 mL MicroScint 20 (PerkinElmer) was added to well. The plate was sealed with TopSeal-A (PerkinElmer) and the radioactivity was measured using a TopCount (PerkinElmer). Non-specific activity (NS cpm) and total radio activity (Total cpm) were determined by counting of pME-CHO plated wells and NaCT-CHO plated wells without compounds, respectively. Diffusion of [^14C]—CO2 was able to be estimated from residual radioactivity (R cpm) by an equation (Total−R)/(Total−NS)×100(%). The difference of Total and R was disappeared in the presence of 0.1 μM antimycin A. EC50 values were calculated by regression analysis using SAS Statistical Analysis System (SAS institute Japan Ltd. Release 9.1).

In turn, `N#Cc1[nH]nnc1-c1cc(OCc2cc(C(F)(F)F)ccc2C(F)(F)F)cc(C(F)(F)F)c1` [Example 63, 5-[3-(2,5-bis-trifluoromethyl-benzyloxy)-5-trifluoromethyl-phenyl]-3H-[1,2,3]triazole-4-carbonitrile] yielded an EC50 of 0.96 µM.

In the case of `Cn1c(-c2cc(F)cc(C(F)(F)F)c2)ccc1-c1nn[nH]c1C#N` [Example 139, 5-[5-(3-fluoro-5-trifluoromethyl-phenyl)-1-methyl-1H-pyrrol-2-yl]-3H-[1,2,3]triazole-4-carbonitrile], a half-maximal effect (EC50) was put at 0.21 µM. Compared with the last molecule, the EC50 is about 4.6-fold lower.

Turning to `N#Cc1[nH]nnc1-c1ccc(Cc2ccc(Cl)cc2)s1` [Example 131, 5-[5-(4-chloro-benzyl)-thiophen-2-yl]-3H-[1,2,3]triazole-4-carbonitrile], the EC50 turned out to be 0.44 µM.

Molecule `N#Cc1[nH]nnc1-c1ccc(-c2cccc(C(F)(F)F)c2)cc1` [Example 68, 5-(3′-trifluoromethyl-biphenyl-4-yl)-3H-[1,2,3]triazole-4-carbonitrile] came in with an EC50 of 0.46 µM. This EC50 and that of the molecule before are within 1.5-fold of each other.

In turn, `N#Cc1[nH]nnc1-c1ccc(-c2cc(F)cc(C(F)(F)F)c2)s1` [Example 129, 5-[5-(3-fluoro-5-trifluoromethyl-phenyl)-thiophen-2-yl]-3H-[1,2,3]triazole-4-carbonitrile] returned an EC50 of 0.44 µM.

Molecule `N#Cc1ccc(-c2nn[nH]c2C#N)cc1/C=C/c1cccc(C(F)(F)F)c1` [Example 45, 5-{4-cyano-3-[(E)-2-(3-trifluoromethyl-phenyl)-vinyl]-phenyl}-3H-[1,2,3]triazole-4-carbonitrile] returned an EC50 of 0.91 µM.

Molecule `CCOc1c(/C=C/c2cccc(C(F)(F)F)c2)cccc1-c1nn[nH]c1C#N` [Example 43, 5-{2-ethoxy-3-[(E)-2-(3-trifluoromethyl-phenyl)-vinyl]-phenyl}-3H-[1,2,3]triazole-4-carbonitrile] returned an EC50 of 0.67 µM.

Regarding `CC(C)Oc1ccc(-c2nn[nH]c2C#N)cc1-c1ccc(C(F)(F)F)nc1` [Example 17], it took 0.52 µM to reach a half-maximal effect (EC50).

On to `CC(Oc1cc(-c2nn[nH]c2C#N)cc(C(F)(F)F)c1)c1ccccc1` (centres unmarked) [Example 64, 5-[3-(1-phenyl-ethoxy)-5-trifluoromethyl-phenyl]-3H-[1,2,3]triazole-4-carbonitrile], for which a half-maximal effect (EC50) was put at 0.24 µM.

The molecule `N#Cc1[nH]nnc1-c1ccc(-c2cccc(C(F)(F)F)c2)nc1` [Example 143, 5-[6-(3-trifluoromethyl-phenyl)-pyridin-3-yl]-3H-[1,2,3]triazole-4-carbonitrile] yielded an EC50 of 1.02 µM.

In the case of `N#Cc1[nH]nnc1-c1ccc(Oc2cccc(C(F)(F)F)c2)s1` [Example 132, 5-[5-(3-trifluoromethyl-phenoxy)-thiophen-2-yl]-3H-[1,2,3]triazole-4-carbonitrile], a half-maximal effect (EC50) was put at 0.32 µM.

Turning to `N#Cc1[nH]nnc1-c1cccc(OCc2cc3ccccc3o2)c1` [Example 59, 5-[3-(benzofuran-2-ylmethoxy)-phenyl]-3H-[1,2,3]triazole-4-carbonitrile], the EC50 is 0.5 µM.

Take `N#Cc1[nH]nnc1-c1ccc(F)c(-c2cc3ccccc3o2)c1` [Example 26, 5-(3-(benzofuran-2-yl)-4-fluoro-phenyl)-3H-[1,2,3]triazole-4-carbonitrile]: a half-maximal response (EC50) required 0.69 µM.

Consider `N#Cc1[nH]nnc1-c1ccc(Oc2cccc(C(F)(F)F)c2)c(F)c1` [Example 72, 5-[3-fluoro-4-(3-trifluoromethyl-phenoxy)-phenyl]-3H-[1,2,3]triazole-4-carbonitrile], for which the EC50 was 0.3 µM.

`N#Cc1[nH]nnc1-c1cc(Oc2ccccc2)cc(C(F)(F)F)c1` [Example 37, 5-(3-phenoxy-5-trifluoromethyl-phenyl)-3H-[1,2,3]triazole-4-carbonitrile] displayed an EC50 of 0.12 µM.

As for `N#Cc1[nH]nnc1-c1sc2ccccc2c1-c1ccc(F)cc1` [Example 148, 5-[3-(4-fluoro-phenyl)-benzo[b]thiophen-2-yl]-3H-[1,2,3]triazole-4-carbonitrile], the response was half-maximal at 0.92 µM (EC50).

The molecule `Cc1sc(-c2cccc(C(F)(F)F)n2)nc1-c1nn[nH]c1C#N` [Example 94, 5-[5-methyl-2-(6-trifluoromethyl-pyridin-2-yl)-thiazol-4-yl]-3H-[1,2,3]triazole-4-carbonitrile] displayed an EC50 of 0.79 µM. This EC50 and that of the molecule before are within 1.5-fold of each other.

In turn, `N#Cc1[nH]nnc1-c1cc(Cl)cc(Cc2cc(C(F)(F)F)ccc2C(F)(F)F)c1` [Example 35, 5-[3-(2,5-bis-trifluoromethyl-benzyl)-5-chloro-phenyl]-3H-[1,2,3]triazole-4-carbonitrile] showed an EC50 of 0.34 µM.

In the case of `CC(C)c1oc(-c2ccc(F)cc2)nc1-c1nn[nH]c1C#N` [Example 123, 5-[2-(4-fluoro-phenyl)-5-isopropyl-oxazol-4-yl]-3H-[1,2,3]triazole-4-carbonitrile], the EC50 amounted to 0.68 µM.

For `CC(C)Cc1oc(-c2ccc(F)c(F)c2)nc1-c1nn[nH]c1C#N` [Example 125, 5-[2-(3,4-difluoro-phenyl)-5-isobutyl-oxazol-4-yl]-3H-[1,2,3]triazole-4-carbonitrile], the midpoint of the response, the EC50, lay at 0.54 µM.

The molecule `CC(C)c1oc(-c2ccc(OC(F)(F)F)cc2)nc1-c1nn[nH]c1C#N` [Example 124, 5-[5-isopropyl-2-(4-trifluoromethoxy-phenyl)-oxazol-4-yl]-3H-[1,2,3]triazole-4-carbonitrile] displayed an EC50 of 0.92 µM.

Molecule `CCN(c1cccc(C(F)(F)F)c1)c1nc(-c2nn[nH]c2C#N)cs1` [Example 84, 5-{2-[N-ethyl-N-(3-trifluoromethyl-phenyl)-amino]-thiazol-4-yl}-3H-[1,2,3]triazole-4-carbonitrile] registered an EC50 of 1.5 µM.

`N#Cc1[nH]nnc1-c1cc(Cl)cc(CC2CC2)c1` [Example 1, 5-(3-chloro-5-cyclopropylmethyl-phenyl)-3H-[1,2,3]triazole-4-carbonitrile] gave an EC50 of 0.5 µM.

Regarding `N#Cc1[nH]nnc1Cc1cccc(-c2cccc(C(F)(F)F)c2)c1` [Example 149, 5-(3′-trifluoromethyl-biphenyl-3-ylmethyl)-3H-[1,2,3]triazole-4-carbonitrile], the EC50 worked out at 0.7 µM. This EC50 and that of the molecule before are within 1.5-fold of each other.

The molecule `N#Cc1[nH]nnc1-c1cc(OCc2cccc(C(F)(F)F)c2)cc(-c2ccc(C(F)(F)F)cn2)c1` [Example 20, 5-[3-(3-trifluoromethyl-benzyloxy)-5-(5-trifluoromethyl-pyridin-2-yl)-phenyl]-3H-[1,2,3]triazole-4-carbonitrile] yielded an EC50 of 1.62 µM.

The molecule `Cc1sc(-c2ccc(Cl)cn2)nc1-c1nn[nH]c1C#N` [Example 95, 5-[2-(5-chloro-pyridin-2-yl)-5-methyl-thiazol-4-yl]-3H-[1,2,3]triazole-4-carbonitrile] showed an EC50 of 0.74 µM.

The molecule `N#Cc1[nH]nnc1-c1csc(Oc2cccc(C(F)(F)F)c2)n1` [Example 85, 5-[2-(3-trifluoromethyl-phenoxy)-thiazol-4-yl]-3H-[1,2,3]triazole-4-carbonitrile] displayed an EC50 of 0.69 µM.

In the case of `CCCc1sc(-c2ccc(Cl)cc2)nc1-c1nn[nH]c1C#N` [Example 103, 5-[2-(4-chloro-phenyl)-5-propyl-thiazol-4-yl]-3H-[1,2,3]triazole-4-carbonitrile], a half-maximal effect (EC50) was put at 0.23 µM.

Regarding `N#Cc1[nH]nnc1-c1cc(-c2ccsc2)cc(C(F)(F)F)c1` [Example 10, 5-(3-(thiophen-3-yl)-5-trifluoromethyl-phenyl)-3H-[1,2,3]triazole-4-carbonitrile], the EC50 is 0.07 µM.

Regarding `N#Cc1[nH]nnc1-c1cccc(CSCc2ccc(OC(F)(F)F)cc2)c1` [Example 65, 5-[3-(4-trifluoromethoxy-benzylsulfanylmethyl)-phenyl]-3H-[1,2,3]triazole-4-carbonitrile], the EC50 was found to be 0.79 µM.

In turn, `N#Cc1[nH]nnc1-c1cscc1-c1cc(C(F)(F)F)cc(C(F)(F)F)c1` [Example 134, 5-[4-(3,5-bis-trifluoromethyl-phenyl)-thiophen-3-yl]-3H-[1,2,3]triazole-4-carbonitrile] registered an EC50 of 0.085 µM.

Regarding `Cc1cc(-c2cc(F)cc(C(F)(F)F)c2)cc(-c2nn[nH]c2C#N)c1` [Example 31, 5-(5′-fluoro-5-methyl-3′-trifluoromethyl-biphenyl-3-yl)-3H-[1,2,3]triazole-4-carbonitrile], the EC50 is 0.38 µM. Against the preceding molecule, the EC50 is about 4.5-fold higher.

The record behind these values is patent US10626095B2, “Cyanotriazole compounds” (OTSUKA PHARMACEUTICAL CO., LTD., priority 2013, dated 2020).
